Consider four compounds from US8592408B2, “Fused aminodihydrothiazine derivatives” (Eisai R&D Management Co., Ltd., priority 2011, dated 2013).

Read-outs that look alike come from different tables or passages of the source.

Series [1] in a line: Effects on QTc interval in anaesthetised guinea pigs. In kind it is in vivo. Particulars: anaesthetised guinea pig, i.v. infusion 2.0, 6.0, 20 mg/kg/10 min, up to the highest dose/concentration tested.
Description: Assessment of Effects on QTc Interval in Guinea Pigs
Male Dunkin-Hartley guinea pigs were weighed and anaesthetised using 4% isoflurane in carbogen. […] Xylazine at 2 mg/kg i.m. was administered into the hind limb as a bradycardic agent to enable detection of QTc prolongation by the software.
The carotid artery and jugular vein were cannulated with lines containing heparinised saline and a 3-lead ECG connected and monitored using LabChart Pro software. Animals were allowed to stabilise for 30 minutes after the completion of the surgical procedure, before the initiation of an i.v. vehicle (5% DMSO/90% MilliQ/5% 0.1N HCl) infusion from time zero (infusion rate=0.2 ml/kg/min). At 10 mins, an arterial blood sample was collected for PK analysis (150u1; all collection syringes were heparinised). At 12 mins, drug infusion was started @ 2.0 mg/kg/10 min i.v. The dose was increased to 6.0 mg/kg/10 min, then 20 mg/kg/10 min i.v., with a 10 minutes infusion period and two minutes blood sampling at each dose. After the final dose, a blood sample was taken and a second vehicle infusion initiated. Eight minutes later a terminal blood sample was collected for plasma PK analysis and the animal killed by a Schedule 1 method.
QTc (Bazett's) changes were analysed using LabChart Pro software.
Series [2] has as its target T1, P-glycoprotein (MDR1-MDCK cells) (Homo sapiens, UniProt P08183).
T1 construct: assay run at Cyprotex Discovery Ltd; host or cells: MDCK (canine kidney epithelial) cells stably transfected with MDR1
The experiment in a line: MDR1-MDCK permeability (bi-directional) Pgp efflux assay. In kind it is in vitro ADME. Particulars: MDR1-MDCK, pH 7.4/pH 7.4, 10 μM, 60 min; ER=Papp(B-A)/Papp(A-B). The protocol: (§1) Test compound permeability was assessed in duplicate.
(§2) Test and control compounds were quantified by LC-MS/MS cassette analysis using a 5-point calibration with appropriate dilution of the samples. Cyprotex generic analytical conditions were used. The starting concentration (C0) was determined from the dosing solution and the experimental recovery calculated from C0 and both apical and basolateral compartment concentrations.
(§3) Lucifer yellow permeation is low if monolayers have not been damaged.
(§4) Where dQ/dt is the rate of permeation of the drug across the cells, C0 is the donor compartment concentration at time zero and A is the area of the cell monolayer.

The test system of series [3] is Aβ peptide production in rat primary neuronal culture. The experiment in a line: Quantification of Aβ peptide in culture of neurons from rat fetus brain (Aβ ELISA). In kind it is cell-based. To be noted: Primary cortical neuron, Aβ species (ABx-40 1 day / ABx-42 3 days) not given. On the technique in general: An ELISA detects its analyte on a solid surface through an enzyme-linked reagent.

A short description of series [4]: Plasma protein binding (PPB), rapid equilibrium dialysis. In kind it is in vitro ADME. Particulars: male, Sprague Dawley, rat, RED 6 h 37° C. As to the method: (§5) Method For Determination of Plasma Protein Binding (PPB) and Brain Tissue Binding (BTB)
(§6) On the morning of dialysis, control male Sprague Dawley rat plasma and brain, previously stored at −80° C. were thawed at room temperature. Plasma was checked for pH and if necessary adjusted to 7.4 with 1M HCl. Plasma was then centrifuged (2000 g for 10 min) and the brains diluted with 2 mL of Phosphate Buffered Saline (pH 7.4) per gram of tissue and homogenised using a mechanical homogeniser.
(§7) The Rapid Equilibrium Dialysis (RED) plate (Thermo Scientific) was prepared in accordance with the manufacturers guidelines i.e. the base plate was soaked in 20% (v/v) ethanol for 10 min and then rinsed twice with deionised water before being allowed to dry. […] The plate was then covered with an adhesive and incubated in air at 37° C. for 6 h with 130 rpm agitation.
(§8) Following the 6 h incubation, the seal was removed and an aliquot (50 μL) taken from the PBS chambers and dispensed into Micronics tubes. […]
(§9) Samples were vortex mixed and an aliquot (300 μL) of acetonitrile containing 0.1% formic acid and 100 ng/mL of an appropriate internal standard added. Samples were then mixed and centrifuged (2000 g for 15 min) and an aliquot of the supernatant (100 μL) removed into a 96-deep well plate and diluted with an equal volume of water ready for analysis by LC-MS/MS.

Series [5] is described as follows: Rat in vivo CNS penetration (plasma, brain and CSF concentrations). To be noted: 10 mg/kg p.o.; for Kp at 2 h / Kp at 4 h / Kp at 6 h / Kp at 8 h: male, Sprague Dawley, po, rat. The protocol:
Rat In Vivo CNS Penetration
Male Sprague Dawley rats were acquired from Charles River UK Ltd. (Margate, UK) and housed according to UK Home Office guidelines. Drugs were made up to the appropriate concentrations in 0.5% methyl cellulose. Animals were dosed orally (2 mL/kg) by gavage at the doses outlined in Tables 2 to 4 below.
At the time points post-dosing, specified in Tables 2 to 4 below the animals were administered an i.p. injection of sodium pentobarbitone (approximately 330 mg/kg for terminal anaesthesia).
Using a guillotine, the animals were decapitated and trunk blood collected into 15 ml Falcon tubes containing 100 IU heparin. Blood was vortexed followed by centrifugation at 6000 rpm, 4° C. for 5 minutes. Plasma was collected for DMPK and ELISA assays and stored at −80° C. until use. Brains were dissected out and divided along the midline, weighed and stored at −80° C. until further use.
Method for Analysis of Plasma, Brain and CSF Samples
Test compound was prepared as a 1 mg free base/mL solution in DMSO, vortexed and sonicated for 5 min. The 1 mg/mL DMSO solution was diluted to 10 and 30 μg/mL acetonitrile stocks, by adding 10 μL to 990 μL acetonitrile and 30 μL to 970 μL acetonitrile, respectively. The 10 and 30 μg/mL acetonitrile stocks were then serially diluted 1:9 (v/v) (100 μL stock into 900 μL acetonitrile) to give the following solutions: 0.003, 0.01, 0.03, 0.1, 0.3, 1, 3, 10 and 30 μg/mL acetonitrile.
Control male Sprague Dawley rat plasma and the study plasma samples were stored at −80° C. until the day of analysis when they were thawed at room temperature. Control plasma was centrifuged (2,000 g for 10 min) and aliquoted (90 μL) into eppendorf tubes for preparation of standards and blank samples. Study samples were previously aliquoted (100 μL) into eppendorf tubes immediately following collection of the plasma.
Double blank and blank samples were prepared by adding 10 μL of acetonitrile to 90 μL of blank plasma.
Control male Sprague Dawley rat brain and the study brain samples were weighed after collection and stored at −80° C. until the day of analysis when they were thawed at room temperature. Once thawed brains were diluted with water (4 mL per gram of tissue) and homogenised using a mechanical homogeniser. An aliquot (100 μL) of each study sample was taken into Micronics tubes ready for analysis and sufficient aliquots (90 μL) of control brain homogenate prepared for preparation of standards and blanks.
Double blank and blank samples were prepared by adding 10 μL of acetonitrile to 90 μL of blank brain homogenate.
Each plasma and brain homogenate sample, standard and blank (100 μL) was extracted with an aliquot (300 μL) of acetonitrile (containing 0.1% formic acid and 100 ng/mL of an appropriate internal standard). Double blanks were extracted with an aliquot (300 μL) of acetonitrile containing 0.1% formic acid). All samples, standards and blanks were then vortex mixed and centrifuged (2000 g for 15 min). An aliquot (50 μL) of the resulting supernatant was then taken into a 2 mL 96-deep well plate and diluted with acetonitrile:water (50:50 v/v) (150 μL) ready for analysis by a specific LC-MS/MS method.
Control male Sprague Dawley rat CSF and the study CSF samples were stored at −80° C. until the day of analysis when they were thawed at room temperature. An aliquot (50 μL) of each study sample was taken into Micronics tubes ready for analysis and sufficient aliquots (45 μL) of control CSF prepared for preparation of standards and blanks.
Double blank and blank samples were prepared by adding 5 μL of acetonitrile to 45 μL of blank CSF.
Each CSF sample, standard and blank (50 μL) was extracted with an aliquot (150 μL) of acetonitrile (containing 0.1% formic acid and 100 ng/mL of an appropriate internal standard). Double blanks were extracted with an aliquot (150 μL) of acetonitrile containing 0.1% formic acid.

The nature of series [6]: Effects on QTc interval in anaesthetised beagle dogs. In kind it is in vivo. To be noted: anaesthetised beagle dog, infusion 1, 3, 10 mg/kg/10 min, up to the highest dose/concentration tested. The protocol: Assessment of Effects on QTc Interval in Beagle Dogs
Male beagle dogs were weighed and injected with sodium thiopental for induction of anesthesia.
The carotid artery and saphenous vein were cannulated with lines containing heparinised saline and a LII ECG connected and monitored using polygraph system. Animals were allowed to stabilise for 30 minutes before the infusion of compound solution and the infusion via cannula was started from time zero with 1 mg/kg/10 min. The dose was increased to 3 mg/kg/10 min, then 10 mg/kg/10 min. An arterial blood sample was collected after every dosing for PK analysis.

Series [7] can be described thus: Brain tissue binding (BTB), rapid equilibrium dialysis. It counts as in vitro ADME. To be noted: rat brain homogenate, RED 6 h 37° C. As to the method: as §5, §6, §7, §8, §9
In general terms: Equilibrium dialysis compares concentrations on both sides of a semipermeable membrane.

The target of series [8] is T2, P-glycoprotein (MDR1) (Homo sapiens, UniProt P08183).
T2 construct: assay run at Cyprotex Discovery Ltd; host or cells: MDCK (canine kidney epithelial) cells stably transfected with MDR1
T2 sequence (P08183 whole entry): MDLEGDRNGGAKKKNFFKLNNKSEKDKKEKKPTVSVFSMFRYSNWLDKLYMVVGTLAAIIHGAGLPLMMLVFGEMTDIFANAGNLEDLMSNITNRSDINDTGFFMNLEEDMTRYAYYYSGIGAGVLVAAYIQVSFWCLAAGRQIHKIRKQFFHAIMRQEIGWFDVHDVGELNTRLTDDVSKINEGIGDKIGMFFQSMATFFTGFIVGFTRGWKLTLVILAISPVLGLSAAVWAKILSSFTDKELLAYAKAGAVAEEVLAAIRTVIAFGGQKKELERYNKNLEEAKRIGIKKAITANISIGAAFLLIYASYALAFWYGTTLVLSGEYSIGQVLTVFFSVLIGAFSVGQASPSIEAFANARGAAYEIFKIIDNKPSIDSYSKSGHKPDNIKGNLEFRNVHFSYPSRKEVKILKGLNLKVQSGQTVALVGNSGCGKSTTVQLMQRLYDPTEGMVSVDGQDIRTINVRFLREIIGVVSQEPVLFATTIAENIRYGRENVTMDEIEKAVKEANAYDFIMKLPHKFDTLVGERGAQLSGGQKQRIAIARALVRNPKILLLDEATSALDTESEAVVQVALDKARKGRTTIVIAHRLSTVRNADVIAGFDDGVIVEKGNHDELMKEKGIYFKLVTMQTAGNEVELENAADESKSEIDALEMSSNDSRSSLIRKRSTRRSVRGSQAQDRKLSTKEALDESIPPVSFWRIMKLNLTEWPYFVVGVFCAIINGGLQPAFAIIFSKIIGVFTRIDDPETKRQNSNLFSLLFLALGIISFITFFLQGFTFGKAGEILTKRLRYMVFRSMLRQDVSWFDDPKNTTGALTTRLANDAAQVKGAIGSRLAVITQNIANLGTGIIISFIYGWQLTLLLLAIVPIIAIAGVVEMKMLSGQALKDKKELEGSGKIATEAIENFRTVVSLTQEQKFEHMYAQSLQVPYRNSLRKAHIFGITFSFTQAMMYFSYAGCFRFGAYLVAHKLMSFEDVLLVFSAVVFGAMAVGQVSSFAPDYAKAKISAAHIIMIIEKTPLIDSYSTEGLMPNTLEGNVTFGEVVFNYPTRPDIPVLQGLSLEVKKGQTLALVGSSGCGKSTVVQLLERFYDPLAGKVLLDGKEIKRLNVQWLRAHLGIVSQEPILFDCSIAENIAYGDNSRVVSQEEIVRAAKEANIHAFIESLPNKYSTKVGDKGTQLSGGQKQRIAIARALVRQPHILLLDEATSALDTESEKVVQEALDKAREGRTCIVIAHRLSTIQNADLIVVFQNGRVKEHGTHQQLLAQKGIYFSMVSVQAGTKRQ
The series can be described thus: MDR1-MDCK permeability (bi-directional) Pgp efflux assay. Particulars: dog, MDCK-MDR1, pH 7.4; read-out: Pgp ER. In kind it is in vitro ADME. The protocol: as §1, §2, §3, §4

In series [9] the test system is Salmonella typhimurium tester strains TA98, TA100, TA1535 and TA1537 and Escherichia coli tester strain WP2 uv. The series can be described thus: Ames test. In kind it is cell-based. To be noted: absence and presence of rat liver S9, up to highest dose tested 5000 ug/plate. As to the method: The title compound was subjected to an Ames test (Salmonella typhimurium tester strains TA98, TA100, TA1535 and TA1537 and Escherichia coli tester strain WP2 uv. Mutation Research 1975, 31, 347; Mutation Research 1976, 38, 3; Proc. Nat. Acad. Sci. USA 1976, 73, 950; Proc. Nat. Acad. Sci. USA 1975, 72, 5135) in the absence and presence of rat liver S9. The compound was negative up to the highest dose/concentration tested (5000 ug/plate).
For orientation: The Ames test detects mutagens through reverse mutation in bacteria.

The conditions of series [10]: TASTPM mice, cited from earlier work; for brain concentration: oral dose of 250 mg/kg.
Series [11] has as its target BACE-1 (Homo sapiens, UniProt P56817). Particulars: cited from earlier work.
In series [12] the test system is Aβ40. To be noted: TASTPM mice, cited from earlier work.
The mark [13] stands for this setting: CSF / plasma (unbound), read-out: CSF:Plu.
Setting [14] is: brain (total) / plasma (total), read-out: Brtot:Pltot.
[15] abbreviates: brain (unbound) / plasma (unbound), read-out: Bru:Plu.

T1 sequence (P08183 whole entry): as above
BACE-1, sequence (P56817 46-501, species assumed): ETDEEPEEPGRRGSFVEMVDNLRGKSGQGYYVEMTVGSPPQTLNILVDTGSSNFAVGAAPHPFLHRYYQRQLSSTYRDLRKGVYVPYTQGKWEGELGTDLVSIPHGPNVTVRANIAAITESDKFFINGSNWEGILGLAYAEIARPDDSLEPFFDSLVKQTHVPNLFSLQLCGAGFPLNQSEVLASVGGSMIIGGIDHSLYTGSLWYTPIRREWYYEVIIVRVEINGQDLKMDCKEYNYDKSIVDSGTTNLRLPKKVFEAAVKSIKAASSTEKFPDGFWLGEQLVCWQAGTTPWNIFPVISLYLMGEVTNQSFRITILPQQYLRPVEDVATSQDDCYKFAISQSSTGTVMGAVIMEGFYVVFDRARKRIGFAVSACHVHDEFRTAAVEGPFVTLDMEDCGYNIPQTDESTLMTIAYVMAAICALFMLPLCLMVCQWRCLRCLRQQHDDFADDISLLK

The IC50 is the midpoint of a concentration-inhibition curve. Turning to `NC1=N[C@@]2(c3cc(NC(=O)c4cnc(CF)cn4)ccc3F)CO[C@H](C(F)(F)F)[C@H]2CS1` [Example 8, N-(3-((4aS,5S,7aS)-2-amino-5-(trifluoromethyl)-4a,5,7,7a-tetrahydro-4H-furo[3,4-d][1,3]thiazin-7a-yl)-4-fluorophenyl)-5-(fluoromethyl)pyrazine-2-carboxamide], in series [1], the “QTc (Bazett's) change” value is “unchanged”. Also, in [2], the “Pgp ER” value was found to be 1.7. In [3], this compound showed an IC50 of 6 nM. For the same compound, the fraction unbound at 6 h, 1 μg/mL in series [4] (pH 7.4, fraction unbound, rat plasma, mean of n = 3, read-out: Rat Plasma fu) was 0.104; in series [4] (pH 7.4, rat plasma, mean of n = 3, read-out: Rat PPB (%) (converted)) it was 0.104; in [7] (male, Sprague Dawley, pH 7.4, fraction unbound, mean of n = 3, read-out: Rat Brain fu) it was 0.022. The Kp at 2 h in series [5] (setting [13]) was 0.5; in series [5] (setting [14]) it was 3.3; in series [5] (setting [15]), 0.7. For the same compound, the Kp at 4 h in [5] (setting [13]) is 0.6; in [5] (setting [14]), 3.9; in series [5] (setting [15]), 0.8. Also, the figures for the Kp at 6 h in [5] (setting [13]), in series [5] (setting [14]) and in [5] (setting [15]) were 0.5, 3.7 and 0.8, respectively. The Kp at 8 h in series [5] (brain (total) / plasma (total), 8 h, read-out: Brtot:Pltot) is 3.8; in series [5] (brain (unbound) / plasma (unbound), 8 h, read-out: Bru:Plu) it was 0.8. Also, the “[CSF]” value in series [5] (rat CSF, 8 h) is on record as “^3n.q”. Further, the QTc change result in series [6] is reported as “unchanged”. The “Rat BTB (%)” value in [7] (1 μg/mL, mean of n = 3) is 97.8%.

`COCc1cnc(C(=O)Nc2ccc(F)c([C@]34CO[C@H](C(F)(F)F)[C@H]3CSC(N)=N4)c2)cn1` [Example 13, N-(3-((4aS,5S,7aS)-2-amino-5-(trifluoromethyl)-4a,5,7,7a-tetrahydro-4H-furo[3,4-d][1,3]thiazin-7a-yl)-4-fluorophenyl)-5-(methoxymethyl)pyrazine-2-carboxamide]: the efflux ratio at 60 min, 10 μM in series [8] is 1.7. Besides, in series [3], the IC50 is 44 nM.

As for `NC1=N[C@@]2(c3cc(N)ccc3F)CO[C@H](C(F)(F)F)[C@H]2CS1` [1-(25), (4aS,5S,7aS)-7a-(5-amino-2-fluorophenyl)-5-(trifluoromethyl)-4a,5,7,7a-tetrahydro-4H-furo[3,4-d][1,3]thiazin-2-amine], the Ames test result in series [9] is “negative”.

In the case of `CCNc1cc(C(=O)N[C@@H](Cc2ccccc2)[C@H](O)CNCc2cccc(C(F)(F)F)c2)c(F)c(N2CCCCS2(=O)=O)c1` [GSK188909], the “increase in CNS penetration by co-administration of a Pgp inhibitor” value in series [10] (250 mg/kg oral, with vs without GF120918) was around 9 fold. Further, the brain concentration is 5.43 µM in [10] (Pgp inhibitor GF120918 dosed 5 hours before) and 0.62 µM in series [10] (no Pgp inhibitor). In addition, in series [11], the IC50 is 5 nM. Further, in series [12] (250 mg/kg oral dose, absence of a Pgp inhibitor), the “effect on brain Aβ40 levels” value is “did not have any effect”. Besides, the “reduction in brain Aβ40 levels relative to vehicle treated mice” value in series [12] (250 mg/kg oral, Pgp inhibitor co-administered 5 hours prior) was 68%.
